Assay results: patent US9556201B2, “Bicyclic pyridines and analogs as sirtuin modulators” (GLAXOSMITHKLINE LLC, priority 2009, dated 2017)

Target: T1, SIRT1 (Homo sapiens, UniProt Q96EB6)
T1 sequence (Q96EB6 1-747): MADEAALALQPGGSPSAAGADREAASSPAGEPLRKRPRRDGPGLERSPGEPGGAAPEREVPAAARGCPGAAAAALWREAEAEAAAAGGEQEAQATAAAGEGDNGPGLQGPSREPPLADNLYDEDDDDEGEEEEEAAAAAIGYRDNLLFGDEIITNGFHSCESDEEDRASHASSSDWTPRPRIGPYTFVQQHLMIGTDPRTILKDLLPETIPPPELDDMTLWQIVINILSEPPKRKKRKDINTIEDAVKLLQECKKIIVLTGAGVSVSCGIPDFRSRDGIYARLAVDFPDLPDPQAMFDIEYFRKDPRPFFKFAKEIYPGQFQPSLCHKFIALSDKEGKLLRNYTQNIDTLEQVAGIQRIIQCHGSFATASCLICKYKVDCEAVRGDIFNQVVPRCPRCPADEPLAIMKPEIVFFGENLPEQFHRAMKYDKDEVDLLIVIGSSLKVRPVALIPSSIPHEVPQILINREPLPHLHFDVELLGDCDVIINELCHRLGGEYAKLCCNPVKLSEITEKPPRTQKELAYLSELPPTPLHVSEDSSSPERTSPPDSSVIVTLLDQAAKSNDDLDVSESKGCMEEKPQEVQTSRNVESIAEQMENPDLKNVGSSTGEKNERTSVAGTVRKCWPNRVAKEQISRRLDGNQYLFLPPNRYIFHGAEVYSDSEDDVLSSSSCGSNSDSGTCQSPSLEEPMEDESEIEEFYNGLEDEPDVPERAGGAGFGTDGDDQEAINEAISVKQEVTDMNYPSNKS
Experiment: Mass spectrometry based assay to identify modulators of SIRT1 activity (deacetylation of p53-based acetylated peptide substrate)
Format: biochemical
Settings: for Emax: 25 min, SIRT1 activation, read-out: % FOLD ACT. (percent maximum fold activation)
Method in brief: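 His-tagged human SIRT1 (10 nM, E. coli) incubated 25 min at 25 °C with […] p53-derived acetylated 5TMR peptide and 120 μM βNAD+ in pH 8 Tris-acetate buffer, then formic acid-stopped. Mass spectrometry quantifies acetylated vs deacetylated peptide; nicotinamide and DMSO controls.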

Row | EC1.5 (concentration giving 1.5-fold activation) [µM] | Emax [%] | Structure (SMILES)
1 | > 25 | ≤ 200 | CCN1C(=O)CCN(C(=O)Nc2ccncn2)c2nc(-c3cccc(Cl)c3)ccc21 [Compound 775]
2 | > 25 | ≤ 200 | CCN1C(=O)CCN(C(=O)Nc2cccc(C)n2)c2nc(-c3cccc(Cl)c3)ccc21 [Compound 776]
3 | 1 to 25 | > 200 | CCN1CCCN(C(=O)Nc2ccncc2)c2nc(-c3cccc(Cl)c3)ccc21 [Compound 777]
4 | > 25 | ≤ 200 | O=C(Nc1ccccn1)N1CCCC(F)(F)c2ccc(-c3cccc(Cl)c3)nc21 [Compound 778]
5 | > 25 | ≤ 200 | Cc1csc(NC(=O)N2CCCC(F)(F)c3ccc(-c4cccc(Cl)c4)nc32)n1 [Compound 779]
6 | > 25 | ≤ 200 | Cc1cccc(NC(=O)N2CCCC(F)(F)c3ccc(-c4cccc(Cl)c4)nc32)n1 [Compound 780]
7 | > 25 | ≤ 200 | CC1(C)CCN(C(=O)Nc2ccccn2)c2nc(-c3cccc(Cl)c3)ccc2C1=O [Compound 783]
8 | > 25 | ≤ 200 | CCN1C(=O)CCN(C(=O)Nc2cccc(OC[C@@H](O)CO)n2)c2nc(-c3cccc(Cl)c3)ccc21 [Compound 788]
9 | 1 to 25 | > 200 | CCN1CCCN(C(=O)Nc2cccnc2)c2nc(-c3cccc(Cl)c3)ccc21 [Compound 789, 7-(3-chlorophenyl)-1-ethyl-N-(pyridin-3-yl)-3,4-dihydro-1H-pyrido[2,3-b][1,4]diazepine-5(2H)-carboxamide]
10 | > 25 | ≤ 200 | CCN1CCCN(C(=O)Nc2ccccn2)c2nc(-c3cccc(Cl)c3)ccc21 [Compound 790]
11 | > 25 | ≤ 200 | CCN1C(=O)CCN(C(=O)Nc2ccc(F)cn2)c2nc(-c3cccc(Cl)c3)ccc21 [Compound 791]
12 | > 25 | ≤ 200 | CCN1C(=O)CCN(C(=O)Nc2ccnc(OC)n2)c2nc(-c3cccc(Cl)c3)ccc21 [Compound 792]
13 | 1 to 25 | > 200 | CCN1CCCN(C(=O)Nc2cccc(OC[C@@H](O)CO)n2)c2nc(-c3cccc(Cl)c3)ccc21 [Compound 796]
14 | > 25 | ≤ 200 | CCN1CCCN(C(=O)Nc2cccc(C)n2)c2nc(-c3cccc(Cl)c3)ccc21 [Compound 797]
15 | > 25 | ≤ 200 | O=C(Nc1ccc(F)cn1)N1CCCC(F)(F)c2ccc(-c3cccc(Cl)c3)nc21 [Compound 798]
16 | 1 to 25 | ≤ 200 | O=C(Nc1ccncn1)N1CCCC(F)(F)c2ccc(-c3cccc(Cl)c3)nc21 [Compound 799, 2-(3-chlorophenyl)-5,5-difluoro-N-(pyrimidin-4-yl)-7,8-dihydro-5H-pyrido[2,3-b]azepine-9(6H)-carboxamide]
17 | > 25 | ≤ 200 | CCN1CCCN(C(=O)Nc2cc(C)cc(C)n2)c2nc(-c3cccc(Cl)c3)ccc21 [Compound 806]
18 | > 25 | ≤ 200 | CCN1CCCN(C(=O)Nc2ccc(F)cn2)c2nc(-c3cccc(Cl)c3)ccc21 [Compound 807]
19 | 1 to 25 | > 200 | CCN1CCCN(C(=O)Nc2ccncc2F)c2nc(-c3cccc(Cl)c3)ccc21 [Compound 808]
20 | 1 to 25 | > 200 | CCN1CCCN(C(=O)Nc2ccncn2)c2nc(-c3cccc(Cl)c3)ccc21 [Compound 809]
21 | > 25 | ≤ 200 | Cc1cccc(NC(=O)N2CCCCc3ccc(-c4cccc(C(F)(F)F)c4)nc32)n1 [Compound 818]
22 | 1 to 25 | ≤ 200 | CC1(C)CCN(C(=O)Nc2ccncc2)c2nc(-c3cccc(Cl)c3)ccc2C1=O [Compound 832]
23 | > 25 | ≤ 200 | CC1(C)CCN(C(=O)Nc2cccnc2)c2nc(-c3cccc(Cl)c3)ccc2C1=O [Compound 833]

More lines, now with the values behind:

Row | Structure (SMILES) | EC1.5 (concentration giving 1.5-fold activation) [µM] | Emax [%]
24 | O=C(Nc1cccc(OC[C@H](O)CO)n1)N1CCCC(F)(F)c2ccc(-c3cccc(Cl)c3)nc21 [Compound 781] | 1 to 25 | > 200
25 | O=C(Nc1ccncc1F)N1CCCC(F)(F)c2ccc(-c3cccc(Cl)c3)nc21 [Compound 782] | > 25 | ≤ 200
26 | Cc1cnccc1NC(=O)N1CCC(C)c2ccc(-c3cccc(C(F)(F)F)c3)nc21 (centres unmarked) [Compound 784] | 1 to 25 | > 200
27 | CC1CCN(C(=O)Nc2ccccn2)c2nc(-c3cccc(C(F)(F)F)c3)ccc21 (centres unmarked) [Compound 785, 4-methyl-N-(pyridin-2-yl)-7-(3-(trifluoromethyl)phenyl)-3,4-dihydro-1,8-naphthyridine-1(2H)-carboxamide] | < 1 | > 200
28 | CC1CCN(C(=O)Nc2cncnc2)c2nc(-c3cccc(C(F)(F)F)c3)ccc21 (centres unmarked) [Compound 802] | < 1 | > 200
29 | CC1CCN(C(=O)Nc2ncccc2F)c2nc(-c3cccc(C(F)(F)F)c3)ccc21 (centres unmarked) [Compound 803] | 1 to 25 | > 200
30 | O=C(Nc1ccncc1)N1CCCCc2ccc(-c3cccc(C(F)(F)F)c3)nc21 [Compound 810] | 1 to 25 | > 200
31 | COc1nccc(NC(=O)N2CCCCc3ccc(-c4cccc(C(F)(F)F)c4)nc32)n1 [Compound 811] | 1 to 25 | ≤ 200
32 | O=C(Nc1ccccn1)N1CCCCc2ccc(-c3cccc(C(F)(F)F)c3)nc21 [Compound 812] | 1 to 25 | ≤ 200
33 | O=C(Nc1ccccn1)N1CCC(F)(F)c2ccc(-c3cccc(C(F)(F)F)c3)nc21 [Compound 814, 4,4-difluoro-N-(pyridin-2-yl)-7-(3-(trifluoromethyl)phenyl)-3,4-dihydro-1,8-naphthyridine-1(2H)-carboxamide] | > 25 | ≤ 200
34 | O=C(Nc1ccncn1)N1CCCCc2ccc(-c3cccc(C(F)(F)F)c3)nc21 [Compound 815] | 1 to 25 | > 200
35 | O=C(Nc1ccc(F)cn1)N1CCCCc2ccc(-c3cccc(C(F)(F)F)c3)nc21 [Compound 816] | > 25 | ≤ 200
36 | O=C(Nc1ccncc1F)N1CCCCc2ccc(-c3cccc(C(F)(F)F)c3)nc21 [Compound 817] | 1 to 25 | > 200
37 | O=C1CCCN(C(=O)Nc2ccccn2)c2nc(-c3cccc(C(F)(F)F)c3)ccc21 [Compound 819] | < 1 | > 200
38 | Cc1cc(NC(=O)N2CCCC(=O)c3ccc(-c4cccc(C(F)(F)F)c4)nc32)ccn1 [Compound 820] | < 1 | > 200
39 | O=C1CCCN(C(=O)Nc2ccncc2F)c2nc(-c3cccc(C(F)(F)F)c3)ccc21 [Compound 821] | 1 to 25 | > 200
40 | O=C(Nc1ncccc1F)N1CCC(F)(F)c2ccc(-c3cccc(C(F)(F)F)c3)nc21 [Compound 822] | 1 to 25 | ≤ 200
41 | Cc1cc(OCC(O)CO)nc(NC(=O)N2CCC(F)(F)c3ccc(-c4cccc(C(F)(F)F)c4)nc32)n1 (centres unmarked) [Compound 824] | 1 to 25 | ≤ 200
42 | CC1(C)CCN(C(=O)Nc2ccncc2)c2nc(-c3cccc(C(F)(F)F)c3)ccc21 [Compound 826, 4,4-dimethyl-N-(pyridin-4-yl)-7-(3-(trifluoromethyl)phenyl)-3,4-dihydro-1,8-naphthyridine-1(2H)-carboxamide] | < 1 | > 200
43 | CC1(C)CCN(C(=O)Nc2ccccn2)c2nc(-c3cccc(C(F)(F)F)c3)ccc21 [Compound 827] | < 1 | > 200
44 | O=C1CCCN(C(=O)Nc2ccncc2)c2nc(-c3cccc(C(F)(F)F)c3)ccc21 [Compound 828] | 1 to 25 | > 200
45 | O=C1CCCN(C(=O)Nc2cccnc2)c2nc(-c3cccc(C(F)(F)F)c3)ccc21 [Compound 829] | 1 to 25 | > 200
46 | Cc1cnccc1NC(=O)N1CCC(C)(C)c2ccc(-c3cccc(C(F)(F)F)c3)nc21 [Compound 834, 4,4-dimethyl-N-(3-methylpyridin-4-yl)-7-(3-(trifluoromethyl)phenyl)-3,4-dihydro-1,8-naphthyridine-1(2H)-carboxamide] | 1 to 25 | ≤ 200
